Patent publication US20260262643A1, “HERBICIDAL BENZOXAZINES” (FMC CORPORATION, priority 2022, published 2026)

Legend:
pigweed, palmer [1] = assay: Test A preemergence; assay type: in vivo, Amaranthus palmeri
Summary of the method: (§1)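 Greenhouse pot test, 10 days. Compound (non-phytotoxic solvent, surfactant) sprayed on soil at seeding or on seedlings at one- to two-leaf stage. Visual injury rated 0–100 against untreated plants.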

kochia [2] = assay: Test A postemergence; assay type: in vivo, Bassia scoparia; details: postemergence, 10 days
Summary of the method: as §1

oat, wild [3] = assay: Test A postemergence; assay type: in vivo, Avena fatua; details: postemergence, 10 days
Summary of the method: as §1

galium = assay: Test A postemergence; assay type: in vivo, Galium aparine; details: postemergence, 10 days
Summary of the method: as §1

goosegrass [4] = assay: Test A postemergence; assay type: in vivo, Eleusine indica; details: postemergence, 10 days
Summary of the method: as §1

soybean [5] = assay: Test A preemergence; assay type: in vivo, Glycine max
Summary of the method: as §1

ragweed [6] = assay: Test A preemergence; assay type: in vivo, Ambrosia artemisiifolia
Summary of the method: as §1

ducksalad = assay: Test B flooded paddy test; assay type: in vivo, Heteranthera limosa; details: 250 g ai/ha, Flood, 13 days, 0 to 100 scale (0 no effect, 100 complete control)
Summary of the method: (§2)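 Percent weed or crop control, judged by eye on a 0–100 scale 13 days post-treatment, reflects compound added to a 3 cm flood maintained over 2-leaf plants in the greenhouse. Missing entries are marked with a dash.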

soybean [7] = assay: Test A postemergence; assay type: in vivo, Glycine max; details: postemergence, 10 days
Summary of the method: as §1

oat, wild [8] = assay: Test A preemergence; assay type: in vivo, Avena fatua
Summary of the method: as §1

ragweed [9] = assay: Test A postemergence; assay type: in vivo, Ambrosia artemisiifolia; details: postemergence, 10 days
Summary of the method: as §1

wheat [10] = assay: Test A preemergence; assay type: in vivo, Triticum aestivum
Summary of the method: as §1

kochia [11] = assay: Test A preemergence; assay type: in vivo, Bassia scoparia
Summary of the method: as §1

wheat [12] = assay: Test A postemergence; assay type: in vivo, Triticum aestivum; details: postemergence, 10 days
Summary of the method: as §1

foxtail, giant [13] = assay: Test A preemergence; assay type: in vivo, Setaria faberi
Summary of the method: as §1

pigweed, palmer [14] = assay: Test A postemergence; assay type: in vivo, Amaranthus palmeri; details: postemergence, 10 days
Summary of the method: as §1

goosegrass [15] = assay: Test A preemergence; assay type: in vivo, Eleusine indica
Summary of the method: as §1

rice = assay: Test B flooded paddy test; assay type: in vivo, Oryza sativa; details: 250 g ai/ha, Flood, 13 days, 0 to 100 scale (0 no effect, 100 complete control)
Summary of the method: as §2

foxtail, giant [16] = assay: Test A postemergence; assay type: in vivo, Setaria faberi; details: postemergence, 10 days
Summary of the method: as §1

horseweed = assay: Test A postemergence; assay type: in vivo, Erigeron canadensis; details: postemergence, 10 days
Summary of the method: as §1

ryegrass, Italian [17] = assay: Test A preemergence; assay type: in vivo, Lolium multiflorum
Summary of the method: as §1

barnyardgrass = assay: Test B flooded paddy test; assay type: in vivo, Echinochloa crus-galli; details: 250 g ai/ha, Flood, 13 days, 0 to 100 scale (0 no effect, 100 complete control)
Summary of the method: as §2

ryegrass, Italian [18] = assay: Test A postemergence; assay type: in vivo, Lolium multiflorum; details: postemergence, 10 days
Summary of the method: as §1

blackgrass [19] = assay: Test A postemergence; assay type: in vivo, Alopecurus myosuroides; details: postemergence, 10 days
Summary of the method: as §1

corn [20] = assay: Test A postemergence; assay type: in vivo, Zea mays; details: postemergence, 10 days
Summary of the method: as §1

corn [21] = assay: Test A preemergence; assay type: in vivo, Zea mays
Summary of the method: as §1

blackgrass [22] = assay: Test A preemergence; assay type: in vivo, Alopecurus myosuroides
Summary of the method: as §1

sedge, umbrella = assay: Test B flooded paddy test; assay type: in vivo, Cyperus difformis; details: 250 g ai/ha, Flood, 13 days, 0 to 100 scale (0 no effect, 100 complete control)
Summary of the method: as §2

[23] = 125 g ai/ha, visual injury after 10 days, 0 to 100 scale, 0 is no effect, 100 is complete control
[24] = 500 g ai/ha, 0 to 100 scale (0 no effect, 100 complete control), 10 days
[25] = 125 g ai/ha, 0 to 100 scale, 0 no effect, 100 complete control
[26] = 500 g ai/ha, visual injury, 0 to 100 scale (0 no effect, 100 complete control)

CCc1ncn(-c2ccc(CC)c(C(=O)N3C[C@H](C)Oc4c(Cl)cccc43)c2)n1 [Compound 95]
Plant response rating, Pigweed, Palmer (pigweed, palmer [1]; [23]): 90 | Plant response rating, Pigweed, Palmer (pigweed, palmer [1]; [24]): 100 | Kochia plant response rating (kochia [2]; [25]): 80 | Plant response rating, Kochia (kochia [2]; [26]): 90 | Oat, Wild plant response rating (oat, wild [3]; [25]): 70 | Plant response rating, Oat, Wild (oat, wild [3]; [26]): 80 | Galium plant response rating (galium; [25]): 100 | Plant response rating, Galium (galium; [26]): 100 | Goosegrass plant response rating (goosegrass [4]; [25]): 80 | Plant response rating, Goosegrass (goosegrass [4]; [26]): 90 | Plant response rating, Soybean (soybean [5]; [23]): 50 | Plant response rating, Soybean (soybean [5]; [24]): 100 | Plant response rating, Ragweed (ragweed [6]; [23]): 0 | Plant response rating, Ragweed (ragweed [6]; [24]): 70 | Plant response rating, Ducksalad (ducksalad): 95 | Soybean plant response rating (soybean [7]; [25]): 100 | Plant response rating, Soybean (soybean [7]; [26]): 100 | Plant response rating, Oat, Wild (oat, wild [8]; [23]): 80 | Plant response rating, Oat, Wild (oat, wild [8]; [24]): 90 | Ragweed plant response rating (ragweed [9]; [25]): 0 | Plant response rating, Ragweed (ragweed [9]; [26]): 50 | Plant response rating, Wheat (wheat [10]; [23]): 90 | Plant response rating, Wheat (wheat [10]; [24]): 90 | Plant response rating, Kochia (kochia [11]; [23]): 60 | Plant response rating, Kochia (kochia [11]; [24]): 100 | Wheat plant response rating (wheat [12]; [25]): 40 | Plant response rating, Wheat (wheat [12]; [26]): 80 | Plant response rating, Foxtail, Giant (foxtail, giant [13]; [23]): 100 | Plant response rating, Foxtail, Giant (foxtail, giant [13]; [24]): 100 | Pigweed, Palmer plant response rating (pigweed, palmer [14]; [25]): 50 | Plant response rating, Pigweed, Palmer (pigweed, palmer [14]; [26]): 90 | Plant response rating, Goosegrass (goosegrass [15]; [23]): 100 | Plant response rating, Goosegrass (goosegrass [15]; [24]): 100 | Plant response rating, Rice (rice): 0 | Foxtail, Giant plant response rating (foxtail, giant [16]; [25]): 90 | Plant response rating, Foxtail, Giant (foxtail, giant [16]; [26]): 90 | Horseweed plant response rating (horseweed; [25]): 0 | Plant response rating, Horseweed (horseweed; [26]): 30 | Plant response rating, Ryegrass, Italian (ryegrass, Italian [17]; [23]): 100 | Plant response rating, Ryegrass, Italian (ryegrass, Italian [17]; [24]): 100 | Plant response rating, Barnyardgrass (barnyardgrass): 65 | Ryegrass, Italian plant response rating (ryegrass, Italian [18]; [25]): 60 | Plant response rating, Ryegrass, Italian (ryegrass, Italian [18]; [26]): 100 | Blackgrass plant response rating (blackgrass [19]; [25]): 80 | Plant response rating, Blackgrass (blackgrass [19]; [26]): 90 | Corn plant response rating (corn [20]; [25]): 60 | Plant response rating, Corn (corn [20]; [26]): 90 | Plant response rating, Corn (corn [21]; [23]): 60 | Plant response rating, Corn (corn [21]; [24]): 100 | Plant response rating, Blackgrass (blackgrass [22]; [23]): 70 | Plant response rating, Blackgrass (blackgrass [22]; [24]): 80 | Plant response rating, Sedge, Umbrella (sedge, umbrella): 98
